US20260083735A1, “ABHD6 ANTAGONIST” (ONO PHARMACEUTICAL CO., LTD., priority 2022, published 2026)

Experiments:
[1] = biological target: T1, recombinant human ABHD6 (33-337) (Homo sapiens, UniProt Q9BV23); assay: Evaluation of ABHD6 enzyme inhibitory activity (arachidonic acid production from 1-arachidonoyl glycerol, RapidFire-MS); format: biochemical; settings: recombinant human GST-tagged ABHD6 (33-337), substrate 1-arachidonoyl glycerol 10 μmol/L, 1 hour, room temperature
T1 construct: recombinant human ABHD6 (33-337); GST; made in house; host or cells: E. coli
T1 sequence (Q9BV23 33-337): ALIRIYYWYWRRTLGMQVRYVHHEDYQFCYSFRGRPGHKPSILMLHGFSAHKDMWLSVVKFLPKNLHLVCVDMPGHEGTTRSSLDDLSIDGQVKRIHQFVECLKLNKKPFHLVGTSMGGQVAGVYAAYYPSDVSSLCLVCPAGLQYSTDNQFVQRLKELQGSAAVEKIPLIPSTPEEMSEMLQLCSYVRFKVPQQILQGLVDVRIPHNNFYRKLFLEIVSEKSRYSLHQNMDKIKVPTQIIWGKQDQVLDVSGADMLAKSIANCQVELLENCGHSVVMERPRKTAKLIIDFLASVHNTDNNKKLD
Description: The recombinant human ABHD6 (33-337) was a GST-tagged ABHD6, and one which was expressed in E. coli, then purified with a Glutathione-Sepharose 4B resin, and then concentrated was used. The enzyme reaction was carried out at room temperature using a 384-well microplate made of polypropylene, and wells to which no enzyme was added were designated as a blank group.
One hour after the start of the enzyme reaction, methanol containing, as an internal standard substance, arachidonic acid-d8 (Cayman Chemical) and 1% formic acid was added to stop enzymatic reaction. The upper part of the enzyme reaction plate was sealed with aluminum, and centrifugation was performed at 560 g for 5 minutes at room temperature. Then, arachidonic acid as an enzyme reaction product and arachidonic acid-d8 as the internal standard substance were quantified with RapidFire (registered trademark)-Mass Spectrometry system.

human ABHD6 = biological target: T2, human ABHD6 (Homo sapiens, UniProt Q9BV23); assay: Measurement of binding affinity for human ABHD6 (BRET, HEK293 cells expressing NanoLuc-human ABHD6 fusion protein); settings: fluorescent probe 100 nmol/L
T2 construct: expressed in transfected cells; host or cells: HEK293
T2 sequence (Q9BV23 1-337): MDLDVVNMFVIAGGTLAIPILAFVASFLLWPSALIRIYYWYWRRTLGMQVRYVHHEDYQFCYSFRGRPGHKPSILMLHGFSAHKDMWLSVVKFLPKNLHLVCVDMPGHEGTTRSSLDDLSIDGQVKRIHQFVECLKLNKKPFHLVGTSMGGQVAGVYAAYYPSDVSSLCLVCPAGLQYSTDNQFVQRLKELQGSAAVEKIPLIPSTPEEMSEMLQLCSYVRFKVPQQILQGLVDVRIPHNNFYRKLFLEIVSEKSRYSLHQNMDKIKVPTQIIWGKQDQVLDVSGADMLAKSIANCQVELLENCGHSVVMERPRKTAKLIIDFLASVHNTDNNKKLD
Description: The binding affinity of the test compound for human ABHD6 was measured using bioluminescence resonance energy transfer (hereinafter, abbreviated as BRET) as an index. The bioluminescence resonance energy transfer is induced by the proximity of a probe molecule and a NanoLuc-human ABHD6 fusion protein, which is caused by allowing a fluorescent probe molecule and a test compound to act in a competitive manner using HEK293 cells forcibly expressing the NanoLuc-human ABHD6 fusion protein.
The test compound and the compound described in Example 2 as a control substance were each dissolved in dimethyl sulfoxide (DMSO) to prepare a 10 mmol/L solution. The prepared 10 mmol/L solution was thawed at the time of use, serially diluted with DMSO, and subjected to an experiment.
HEK293 cells expressing a NanoLuc-human ABHD6 fusion protein were statically cultured at 37° C. in the presence of 5% CO2 using inactivated (56° C., 30 min) 9.8 vol % non-dialyzed-FBS (containing 0.5 vol % GENETICIN and 1% penicillin-streptomycin). The subculture was performed by the following method.
The culture medium was removed, and the cells were washed once with phosphate buffered saline without Ca^2+ and Mg^2+. An appropriate amount of trypsin-EDTA was added, and the cells were incubated at room temperature. After the cells were detached, a culture medium in a volume 10-fold the volume of trypsin-EDTA (0.05%) was added to stop an enzyme reaction. The cells were collected in a centrifuge tube, and centrifuged at room temperature for 3 minutes at 120 g, and the supernatant was removed. The cells were suspended in an appropriate amount of culture medium and seeded in a culture flask.
HEK293 cells expressing a NanoLuc-human ABHD6 fusion protein were prepared, and then cryopreserved so as to be 5.0×10^6 cells/mL/vial in CELLBANKER2, and the cells were subjected to an experiment. HBSS (+) containing 20 mmol/L HEPES (pH 7.3) and 0.1% BSA was prepared and used as an assay buffer. The cells were thawed and suspended in the assay buffer to prepare a cell suspension of 2×10^5 cells/mL. […] The plate was allowed to stand at 37° C. for 30 minutes in the presence of 5% CO2. Then, a probe molecule (10 mmol/L in DMSO) having a fluorophore was diluted with the assay buffer so as to have a final concentration of 100 nmol/L, and added to the assay plate in an amount of 15 μL each. Further, this was allowed to stand at 37° C. for 30 minutes in the presence of 5% CO2. Then, a Nano-Glo (registered trademark) Vivazine (trademark) substrate (Promega Corporation) was diluted with the assay buffer according to the method described in the protocol, and added to the assay plate in an amount of 10 μL each, and this was allowed to stand at room temperature for 1 hour. Thereafter, the luminescence and fluorescence intensity were measured using a GloMax (registered trademark) discover system. The ratio between the emission intensity through the 450 nm bandpass filter and the fluorescence intensity through the 600 nm longpass filter was defined as the measured value of each sample. […] The measured value of the group not containing the compound was defined as 0% inhibition. The IC50 value of the test compound was determined from the measured value at each test compound concentration.

Row | SMILES | IC50 [1] [nM] | IC50 (human ABHD6) [nM]
1 | Cc1ccc(C(=O)N2C[C@@H]3CC[C@@H](Oc4ccc(Br)nn4)[C@@H]3C2)s1 [Example 1-1, [(3aS,4R,6aR)-4-[(6-Bromo-3-pyridazinyl)oxy]hexahydrocyclopenta[c]pyrrol-2(1H)-yl](5-methyl-2-thienyl)methanone] | 1 | 11
2 | O=C(c1cc2nn(C3CC3)cc2s1)N1C[C@@H]2CC[C@@H](Oc3ccc(Br)nn3)[C@@H]2C1 [Example 1-4, [(3aS,4R,6aR)-4-[(6-Bromo-3-pyridazinyl)oxy]hexahydrocyclopenta[c]pyrrol-2(1H)-yl](2-cyclopropyl-2H-thieno[3,2-c]pyrazol-5-yl)methanone] | < 1 | 4
3 | O=C(c1ccc(C(F)F)s1)N1C[C@@H]2CC[C@@H](Oc3ccc(Br)nn3)[C@@H]2C1 [Example 1-7, [(3aS,4R,6aR)-4-[(6-Bromo-3-pyridazinyl)oxy]hexahydrocyclopenta[c]pyrrol-2(1H)-yl][5-(difluoromethyl)-2-thienyl]methanone] | < 1 | 20
4 | Cn1ncc2cc(C(=O)N3C[C@@H]4CC[C@@H](Oc5ccc(Br)nn5)[C@@H]4C3)sc21 [Example 1-10, [(3aS,4R,6aR)-4-[(6-Bromo-3-pyridazinyl)oxy]hexahydrocyclopenta[c]pyrrol-2(1H)-yl](1-methyl-1H-thieno[2,3-c]pyrazol-5-yl)methanone] | < 1 | 4
5 | COC(=O)N1CCc2sc(C(=O)N3C[C@@H]4CC[C@@H](Oc5ccc(Br)nn5)[C@@H]4C3)cc2C1 [Example 1-13] | < 1 | 5
6 | O=C(c1ccc(OCCF)s1)N1C[C@@H]2CC[C@@H](Oc3ccc(Br)nn3)[C@@H]2C1 [Example 1-19, [(3aS,4R,6aR)-4-[(6-Bromo-3-pyridazinyl)oxy]hexahydrocyclopenta[c]pyrrol-2(1H)-yl][5-(2-fluoroethoxy)-2-thienyl]methanone] | < 1 | 10
7 | O=C(c1cc2c(s1)CCOC2)N1CC2CCC(Oc3nnc(Cl)c4ccsc34)C2C1 (stereo not shown) [Example 2-3, {4-[(4-Chlorothieno[2,3-d]pyridazin-7-yl)oxy]hexahydrocyclopenta[c]pyrrol-2(1H)-yl}(6,7-dihydro-4H-thieno[3,2-c]pyran-2-yl)methanone] | 1 | 9
8 | COc1cc(Cl)nnc1O[C@@H]1CC[C@H]2CN(C(=O)c3cc4c(s3)CCOC4)C[C@H]21 [Example 2-5, [(3aS,4R,6aR)-4-[(6-Chloro-4-methoxy-3-pyridazinyl)oxy]hexahydrocyclopenta[c]pyrrol-2(1H)-yl](6,7-dihydro-4H-thieno[3,2-c]pyran-2-yl)methanone] | 2 | 9
9 | O=C(c1cc2c(s1)CCOC2)N1C[C@@H]2CC3(CC3)[C@@H](Oc3ccc(Br)nn3)[C@@H]2C1 [Example 4, [(3aS,4S,6aR)-4-[(6-Bromo-3-pyridazinyl)oxy]tetrahydro-1H-spiro[cyclopenta[c]pyrrole-5,1′-cyclopropan]-2(3H)-yl](6,7-dihydro-4H-thieno[3,2-c]pyran-2-yl)methanone] | < 1 | 1
10 | O=C(c1cc2c(s1)CCOC2)N1C[C@@H]2CC[C@@H](Oc3ccc(Br)nn3)[C@]2(O)C1 [Example 7, [(3aR,4R,6aS)-4-[(6-Bromo-3-pyridazinyl)oxy]-3a-hydroxyhexahydrocyclopenta[c]pyrrol-2(1H)-yl](6,7-dihydro-4H-thieno[3,2-c]pyran-2-yl)methanone] | 2 | 3
11 | O=C(c1cc2c(s1)CCOC2)N1C[C@@H]2C[C@H](F)[C@@H](Oc3ccc(Br)nn3)[C@@H]2C1 [Example 9, [(3aS,4S,5S,6aR)-4-[(6-Bromo-3-pyridazinyl)oxy]-5-fluorohexahydrocyclopenta[c]pyrrol-2(1H)-yl](6,7-dihydro-4H-thieno[3,2-c]pyran-2-yl)methanone] | < 1 | 2
